Assay results from US12065404B2, “C4-carboxylic acid-substituted tryptamine derivatives and methods of using” (priority 2022, dated 2024).
Several values for one entry are separate records, joined by “and”; a condition that tells them apart may be missing. Identical values can stand only once. Entries after “also recorded” stand apart in the source; their conditions may differ.

Legend:
[1] = biological target: T1, neuronal 5-HT2A receptor (5-HT2AR) (Mus musculus, UniProt P35363); assay: Drug-induced Head Twitch Response (HTR) in mice; assay type: in vivo, C57BL/6-Elite mice; details: 1 mg/kg i.p., 15-to-30-minute window post-drug, relative to vehicle-treated control mice
T1 construct: HTR was measured in mice treated with a control and test compounds; tissue Charles River; host or cells: live C57BL/6-Elite mice (neuronal receptor)

[2] = biological target: T2, 5-HT1A receptor (Homo sapiens, UniProt P08908); assay: cAMP-Glo assay of 5-HT1A receptor modulation, +5-HT1A (CHO-K1/5-HT1A/Ga15) vs -5-HT1A (CHO-K1/Ga15) cells; assay type: cell-based; design: dose or concentration left out as unconfirmed; details: +5-HT1A vs -5-HT1A cell cultures stimulated with forskolin, increasing ligand concentrations
T2 construct: host or cells: CHO-K1 (co-expressing Ga15)
T2 sequence (P08908 1-422): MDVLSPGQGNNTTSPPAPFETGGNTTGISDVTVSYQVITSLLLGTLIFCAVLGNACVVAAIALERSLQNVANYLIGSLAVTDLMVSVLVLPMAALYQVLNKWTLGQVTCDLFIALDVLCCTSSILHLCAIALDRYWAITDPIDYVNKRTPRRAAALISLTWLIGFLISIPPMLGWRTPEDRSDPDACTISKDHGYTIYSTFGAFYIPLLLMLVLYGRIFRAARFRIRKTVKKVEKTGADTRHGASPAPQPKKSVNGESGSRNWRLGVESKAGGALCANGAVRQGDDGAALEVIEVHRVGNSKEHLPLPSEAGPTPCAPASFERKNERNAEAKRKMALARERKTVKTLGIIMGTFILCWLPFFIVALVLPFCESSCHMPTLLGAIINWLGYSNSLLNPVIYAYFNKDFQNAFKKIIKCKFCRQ

[3] = biological target: GABAA (Homo sapiens, UniProt P14867+P18507+P47870); assay type: cell-based; details: ion channel
[4] = Mouse pharmacokinetic (PK) study, parent compound and psilocin metabolite in plasma; assay type: in vivo, C57Bl/6 mice; details: for F(%) / F(%), M37 considered as an outlier / bioavailability: AUC0-tlast used for p.o. group; for F(%), M37 considered as an outlier: i.v. animal M37 considered an outlier; for bioavailability: male, C57Bl/6, mouse, plasma, po
Source text: Briefly, the procedure was as follows. […] 19, 2022.

[5] = 1 mg/kg i.v. C(I), 6 h, individual animals
[6] = 1 mg/kg i.v. C(I), 8 h, individual animals
[7] = 1 mg/kg oral C(I), 8 h, individual animals
[8] = 1 mg/kg oral C(I), 24 h, individual animals
[9] = 3 mg/kg oral C(I), 24 h, individual animals
[10] = 10 mg/kg oral C(I), 24 h, individual animals
[11] = 10 mg/kg oral, individual animals
[12] = administered compound itself in plasma, 1 mg/kg i.v., individual animals, 1 mg/kg
[13] = administered compound itself in plasma, 1 mg/kg i.v., mean ± SD
[14] = administered compound itself in plasma, 1 mg/kg oral, individual animals, 1 mg/kg
[15] = administered compound itself in plasma, 1 mg/kg oral, mean ± SD, 1 mg/kg
[16] = administered compound itself in plasma, 3 mg/kg oral, individual animals, 3 mg/kg
[17] = administered compound itself in plasma, 3 mg/kg oral, mean ± SD
[18] = administered compound itself in plasma, 3 mg/kg oral, mean ± SD, 3 mg/kg
[19] = administered compound itself in plasma, 10 mg/kg oral, individual animals, 10 mg/kg
[20] = administered compound itself in plasma, 10 mg/kg oral, mean ± SD

Sequence of GABAA (P14867 28-456): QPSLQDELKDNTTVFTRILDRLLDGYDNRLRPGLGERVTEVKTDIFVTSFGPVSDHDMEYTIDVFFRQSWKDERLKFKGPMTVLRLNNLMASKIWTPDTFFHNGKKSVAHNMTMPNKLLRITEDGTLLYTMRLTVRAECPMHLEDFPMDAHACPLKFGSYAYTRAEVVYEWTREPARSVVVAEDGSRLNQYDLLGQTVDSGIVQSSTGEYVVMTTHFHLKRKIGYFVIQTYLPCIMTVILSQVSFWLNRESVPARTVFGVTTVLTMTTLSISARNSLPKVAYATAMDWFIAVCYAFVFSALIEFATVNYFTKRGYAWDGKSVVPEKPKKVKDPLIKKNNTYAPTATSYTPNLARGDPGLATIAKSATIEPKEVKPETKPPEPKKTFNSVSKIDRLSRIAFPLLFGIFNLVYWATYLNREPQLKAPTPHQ
Sequence of GABAA (P47870 26-512): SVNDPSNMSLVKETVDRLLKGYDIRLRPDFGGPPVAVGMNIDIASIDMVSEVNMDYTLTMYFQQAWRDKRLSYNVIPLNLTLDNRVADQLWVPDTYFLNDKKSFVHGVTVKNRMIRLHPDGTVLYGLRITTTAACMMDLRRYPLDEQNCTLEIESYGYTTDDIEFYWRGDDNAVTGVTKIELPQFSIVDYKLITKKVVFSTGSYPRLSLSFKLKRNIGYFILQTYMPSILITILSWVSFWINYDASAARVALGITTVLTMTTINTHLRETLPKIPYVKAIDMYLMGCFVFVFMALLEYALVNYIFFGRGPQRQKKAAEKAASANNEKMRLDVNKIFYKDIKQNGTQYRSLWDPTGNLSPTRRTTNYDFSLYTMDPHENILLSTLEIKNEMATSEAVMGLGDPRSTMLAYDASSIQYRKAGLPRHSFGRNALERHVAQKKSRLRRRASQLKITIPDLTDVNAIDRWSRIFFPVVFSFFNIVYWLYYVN
Sequence of GABAA (P18507 40-475): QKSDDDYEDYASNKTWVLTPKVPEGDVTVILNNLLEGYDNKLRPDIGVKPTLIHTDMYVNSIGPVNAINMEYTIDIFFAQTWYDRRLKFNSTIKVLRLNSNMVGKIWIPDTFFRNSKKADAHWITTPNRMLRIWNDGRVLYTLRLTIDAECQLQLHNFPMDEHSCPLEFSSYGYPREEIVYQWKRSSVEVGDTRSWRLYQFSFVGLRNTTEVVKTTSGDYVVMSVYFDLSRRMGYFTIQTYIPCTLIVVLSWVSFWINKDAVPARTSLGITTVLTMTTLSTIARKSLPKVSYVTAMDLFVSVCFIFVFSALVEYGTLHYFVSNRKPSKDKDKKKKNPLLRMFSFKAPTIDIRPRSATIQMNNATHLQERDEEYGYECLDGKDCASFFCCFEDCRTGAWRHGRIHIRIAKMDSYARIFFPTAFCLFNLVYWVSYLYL
T1 sequence (P35363 whole entry): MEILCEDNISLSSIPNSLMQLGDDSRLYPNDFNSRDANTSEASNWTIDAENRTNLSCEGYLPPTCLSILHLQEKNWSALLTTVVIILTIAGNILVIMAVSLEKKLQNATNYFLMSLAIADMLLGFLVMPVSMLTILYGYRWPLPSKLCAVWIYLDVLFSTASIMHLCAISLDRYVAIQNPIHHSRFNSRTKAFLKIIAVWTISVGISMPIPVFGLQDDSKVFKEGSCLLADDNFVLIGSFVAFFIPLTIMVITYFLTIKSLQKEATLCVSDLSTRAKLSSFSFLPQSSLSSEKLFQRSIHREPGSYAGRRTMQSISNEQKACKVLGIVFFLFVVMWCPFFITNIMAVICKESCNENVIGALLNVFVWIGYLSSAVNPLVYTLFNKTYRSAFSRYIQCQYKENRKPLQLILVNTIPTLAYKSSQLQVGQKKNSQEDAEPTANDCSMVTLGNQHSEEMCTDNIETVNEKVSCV

## CN(C)CCc1c[nH]c2cccc(OC(=O)c3ccc(Br)cc3)c12 [C(I)]
[1]
  Incidences of Head Twitch Response (HTR): Elevated incidences of HTR
[2]
  5-HT1A receptor modulation (reduction of cAMP levels): mild receptor modulation at higher ligand concentrations
[3]; blocker (BL)
  IC50: > 100 µM
[3]; opener (OP)
  EC50: > 100 µM
[4]; 1 mg/kg i.v. C(I), 5 min, individual animals
  Plasma concentration of C(I): 2620 ng/mL and 118 ng/mL and 94.4 ng/mL
[4]; 1 mg/kg i.v. C(I), 0.25 h, individual animals
  Plasma concentration of C(I): 1250 ng/mL and 58.5 ng/mL and 48.2 ng/mL
[4]; 1 mg/kg i.v. C(I), 0.5 h, individual animals
  Plasma concentration of C(I): 348 ng/mL and 33.4 ng/mL and 30.4 ng/mL
[4]; 1 mg/kg i.v. C(I), 1 h, individual animals
  Plasma concentration of C(I): 128 ng/mL and 17.9 ng/mL and 13.8 ng/mL
[4]; 1 mg/kg i.v. C(I), 2 h, individual animals
  Plasma concentration of C(I): 52.8 ng/mL and 3.61 ng/mL and 3.40 ng/mL
[4]; 1 mg/kg i.v. C(I), 4 h, individual animals
  Plasma concentration of C(I): 8.88 ng/mL and 0.984 ng/mL and 0.509 ng/mL
[4]; [5]
  Plasma concentration of C(I): 4.65 ng/mL and 0.363 ng/mL and BLQ (BLQ denotes below the lower limit of quantitation (0.5 ng/mL).)
  Plasma concentration of psilocin: BLQ (BLQ denotes below the lower limit of quantitation (0.2 ng/ml).)
[4]; [6]
  Plasma concentration of C(I): BLQ (BLQ denotes below the lower limit of quantitation (0.5 ng/mL).); also recorded: No Peak
  Plasma concentration of psilocin: BLQ (BLQ denotes below the lower limit of quantitation (0.2 ng/ml).)
[4]; 1 mg/kg oral C(I), 0.25 h, individual animals
  Plasma concentration of C(I): 0.617 ng/mL and 0.410 ng/mL and 0.910 ng/mL
[4]; 1 mg/kg oral C(I), 0.5 h, individual animals
  Plasma concentration of C(I): 0.816 ng/mL and 0.535 ng/mL and 1.28 ng/mL
[4]; 1 mg/kg oral C(I), 1 h, individual animals
  Plasma concentration of C(I): BLQ (BLQ denotes below the lower limit of quantitation (0.5 ng/mL).) and 1.02 ng/mL
[4]; 1 mg/kg oral C(I), 2 h, individual animals
  Plasma concentration of C(I): BLQ (BLQ denotes below the lower limit of quantitation (0.5 ng/mL).) and 0.600 ng/mL
[4]; 1 mg/kg oral C(I), 4 h, individual animals
  Plasma concentration of C(I): BLQ (BLQ denotes below the lower limit of quantitation (0.5 ng/mL).)
[4]; 1 mg/kg oral C(I), 6 h, individual animals
  Plasma concentration of C(I): BLQ (BLQ denotes below the lower limit of quantitation (0.5 ng/mL).)
[4]; [7]
  Plasma concentration of C(I): BLQ (BLQ denotes below the lower limit of quantitation (0.5 ng/mL).)
  Plasma concentration of psilocin: BLQ (BLQ denotes below the lower limit of quantitation (0.2 ng/ml).)
[4]; [8]
  Plasma concentration of C(I): No Peak and No (2×)
  Plasma concentration of psilocin: No Peak; also recorded: BLQ (BLQ denotes below the lower limit of quantitation (0.2 ng/ml).)
[4]; 1 mg/kg oral, value might be under-estimated, individual animals
  F(%): 0.554% and 0.0450% and 0.465%
[4]; 1 mg/kg oral, individual animals
  F(%), M37 considered as an outlier: 3.59% and 0.291% and 3.01%
[4]; 1 mg/kg oral, mean ± SD
  F(%), M37 considered as an outlier: 2.30 ± 1.76% and 2.30%
[4]; 3 mg/kg oral C(I), 0.25 h, individual animals
  Plasma concentration of C(I): 2.13 ng/mL and 2.34 ng/mL
[4]; 3 mg/kg oral C(I), 0.5 h, individual animals
  Plasma concentration of C(I): 2.16 ng/mL and 1.99 ng/mL
[4]; 3 mg/kg oral C(I), 1 h, individual animals
  Plasma concentration of C(I): 1.56 ng/mL and 1.33 ng/mL
[4]; 3 mg/kg oral C(I), 2 h, individual animals
  Plasma concentration of C(I): 0.705 ng/mL and 0.720 ng/mL
[4]; 3 mg/kg oral C(I), 4 h, individual animals
  Plasma concentration of C(I): 0.569 ng/mL and 0.873 ng/mL and 1.28 ng/mL
[4]; 3 mg/kg oral C(I), 6 h, individual animals
  Plasma concentration of C(I): 0.310 ng/mL and 0.250 ng/mL
[4]; 3 mg/kg oral C(I), 8 h, individual animals
  Plasma concentration of C(I): BLQ (BLQ denotes below the lower limit of quantitation (0.5 ng/mL).)
[4]; [9]
  Plasma concentration of C(I): No Peak
  Plasma concentration of psilocin: No Peak
[4]; 3 mg/kg oral, value might be under-estimated, individual animals
  F(%): 0.484% and 0.523%
[4]; 3 mg/kg oral, individual animals
  F(%), M37 considered as an outlier: 3.02% and 3.13% and 3.39%
[4]; 3 mg/kg oral, mean ± SD
  F(%), M37 considered as an outlier: 3.18 ± 0.189% and 3.18%
[4]; 10 mg/kg oral C(I), 0.25 h, individual animals
  Plasma concentration of C(I): 3.73 ng/mL and 6.07 ng/mL
[4]; 10 mg/kg oral C(I), 0.5 h, individual animals
  Plasma concentration of C(I): 7.10 ng/mL and 10.9 ng/mL
[4]; 10 mg/kg oral C(I), 1 h, individual animals
  Plasma concentration of C(I): 5.29 ng/mL and 7.46 ng/mL
[4]; 10 mg/kg oral C(I), 2 h, individual animals
  Plasma concentration of C(I): 2.51 ng/mL and 1.47 ng/mL and 3.80 ng/mL
[4]; 10 mg/kg oral C(I), 4 h, individual animals
  Plasma concentration of C(I): 2.06 ng/mL and 3.01 ng/mL
[4]; 10 mg/kg oral C(I), 6 h, individual animals
  Plasma concentration of C(I): 1.18 ng/mL and 0.661 ng/mL
[4]; 10 mg/kg oral C(I), 8 h, individual animals
  Plasma concentration of C(I): 0.253 ng/mL and 1.10 ng/mL and 0.283 ng/mL
[4]; [10]
  Plasma concentration of C(I): No (2×) and No Peak
  Plasma concentration of psilocin: BLQ (BLQ denotes below the lower limit of quantitation (0.2 ng/ml).)
[4]; [11]
  F(%), M37 considered as an outlier: 2.71% and 2.90% and 4.06%
  F(%): 0.447% and 0.627%
[4]; 10 mg/kg oral, mean ± SD
  F(%), M37 considered as an outlier: 3.22 ± 0.731%
[4]; [12]
  AUC0-inf: 1014 ng·h/mL and 64.4 ng·h/mL and 51.9 ng·h/mL
  AUC0-inf/Dose: 1014 kg·ng·h/mL/mg and 64.4 kg·ng·h/mL/mg and 51.9 kg·ng·h/mL/mg
  AUC0-tlast: 1006 ng·h/mL and 63.7 ng·h/mL and 51.4 ng·h/mL
  AUC0-tlast/Dose: 1006 kg·ng·h/mL/mg and 63.7 kg·ng·h/mL/mg and 51.4 kg·ng·h/mL/mg
  Apparent t1/2: 72.6 min and 38.6 min
  C0: 3792 ng/mL and 168 ng/mL and 132 ng/mL
  CL: 16.4 mL/min/kg and 258.9 mL/min/kg and 321.08 mL/min/kg
  MRT0-inf: 46.8 min and 39.4 min
  Vss: 0.56 L/kg and 12.109 L/kg and 12.65 L/kg
[4]; [13]
  AUC0-inf/Dose: 377 ± 552 kg·ng·h/mL/mg
  AUC0-tlast/Dose: 374 ± 548 kg·ng·h/mL/mg
  MRT0-inf: 40.1 ± 6.36 min
[4]; administered compound itself in plasma, 1 mg/kg i.v., mean, n = 2 (apparently without possible outlier M37)
  AUC0-tlast/Dose: 57.6 kg·ng·h/mL/mg
[4]; [14]
  AUC0-tlast: 2.09 ng·h/mL and 0.169 ng·h/mL and 1.75 ng·h/mL
  AUC0-tlast/Dose: 2.09 kg·ng·h/mL/mg and 0.169 kg·ng·h/mL/mg and 1.75 kg·ng·h/mL/mg
  Cmax: 0.816 ng/mL and 0.54 ng/mL and 1.28 ng/mL
  Cmax/Dose: 0.816 kg·ng/mL/mg and 0.54 kg·ng/mL/mg and 1.28 kg·ng/mL/mg
[4]; [15]
  AUC0-tlast/Dose: 1.34 ± 1.02 kg·ng·h/mL/mg and 1.34 kg·ng·h/mL/mg
  Cmax/Dose: 0.877 ± 0.376 kg·ng/mL/mg and 0.877 kg·ng/mL/mg
[4]; [16]
  AUC0-tlast: 5.47 ng·h/mL and 5.91 ng·h/mL
  AUC0-tlast/Dose: 1.75 kg·ng·h/mL/mg and 1.82 kg·ng·h/mL/mg and 1.97 kg·ng·h/mL/mg
  Cmax: 2.16 ng/mL and 2.34 ng/mL
  Cmax/Dose: 0.650 kg·ng/mL/mg and 0.720 kg·ng/mL/mg and 0.780 kg·ng/mL/mg
  tmax: 15 min
[4]; [17]
  AUC0-tlast: 5.54 ± 0.330 ng·h/mL
  Cmax: 2.15 ± 0.195 ng/mL
[4]; [18]
  AUC0-tlast/Dose: 1.85 ± 0.110 kg·ng·h/mL/mg and 1.85 kg·ng·h/mL/mg
  Cmax/Dose: 0.717 ± 0.0651 kg·ng/mL/mg and 0.717 kg·ng/mL/mg
[4]; [19]
  AUC0-inf: 24.1 ng·h/mL
  AUC0-tlast: 16.8 ng·h/mL and 23.6 ng·h/mL
  AUC0-tlast/Dose: 1.58 kg·ng·h/mL/mg and 1.68 kg·ng·h/mL/mg and 2.36 kg·ng·h/mL/mg
  Apparent t1/2: 70.2 min
  Cmax: 7.10 ng/mL and 10.9 ng/mL
  Cmax/Dose: 0.720 kg·ng/mL/mg and 0.710 kg·ng/mL/mg and 1.09 kg·ng/mL/mg
  MRT0-inf: 144 min
  tmax: 30 min
[4]; [20]
  AUC0-tlast/Dose: 1.87 ± 0.425 kg·ng·h/mL/mg
  Cmax/Dose: 0.840 ± 0.217 kg·ng/mL/mg
[4]; 1 mg/kg, 1 mg/kg oral, value might be under-estimated, mean ± SD
  bioavailability: 0.355 ± 0.272%
[4]; 3 mg/kg, 3 mg/kg oral, value might be under-estimated, individual animals
  bioavailability: 0.466%
[4]; 3 mg/kg, 3 mg/kg oral, value might be under-estimated, mean ± SD
  bioavailability: 0.491 ± 0.0292%
[4]; 10 mg/kg, 10 mg/kg oral, individual animals
  bioavailability: 0.419%
[4]; 10 mg/kg, 10 mg/kg oral, mean ± SD
  bioavailability: 0.498 ± 0.113%
